Values joined by “and” are separate entries in the source; they are usually repeats but may differ in a detail not shown here. Equal entries are not always repeated.
How the values were obtained:
[1] = target: T1, STAT3 protein (residues 127–688) (Homo sapiens, UniProt P40763); assay: Fluorescence polarization (FP) assay, 5-FAM-G(pTyr)LPQTV-NH2 peptide; type: binding; conditions: 200 nM STAT3, 5 nM fluorescent peptide, 1 h at 37 °C preincubation, mean ± 95% confidence interval, 3 replicas
T1 construct: The STAT3 protein (residues 127–688) was expressed and purified; made in house
Protocol: The STAT3 protein (residues 127–688) was expressed and purified as described in our recent work. Fluorescence polarization assays were performed on a Molecular Devices SpectraMax iD5Multimode Microplate Reader (San Jose, CA, USA) using Greiner black 384-well flat-bottom nonbinding microplates with 40 μL final well volumes. The fluorescent peptide (5-FAM-G(pTyr)-LPQTV-NH2, purchased from GenScript Biotech Ltd., Piscataway, NJ, USA), as well as the protein were diluted with a buffer containing 50 mM NaCl, 10 mM HEPES (4-(2-hydroxyethyl)-1-piperazineethanesulfonic acid), 1 mM EDTA (ethylenediaminetetraacetic acid), 2 mM DTT (dithiothreitol), and 0.1% Triton X-100, pH 7.5. The final concentration of the STAT3 protein was 200 nM, and the fluorescent peptide was added at a final concentration of 5 nM. The wells were treated with varying concentrations of inhibitor compounds, with a 5% final DMSO content. Protein and inhibitors were incubated at 37 °C for 1 h. Then the fluorescence peptide was added, and then the plate was incubated for another 20 min prior to the fluorescence readout (extinction wavelength: 475 nm, emission wavelength: 520 nm). The measurements were carried out using 3 parallel biological replicas. Fluorescence polarization was calculated from the perpendicular and parallel fluorescence intensities and then plotted against concentration. The IC50 values were determined after fitting […] dose–response curves on data points using GraphPad Prism 8.0.1. software.
Figure S6. Fluorescence polarization assay results. Nonlinear curve fitting was used ([Inhibitor] vs. response - Variable slope (four parameters)) with least squares fitting. IC50s are presented with 95% confidence intervals, measurements were done in 3 parallel biological replicas.

STAT3 protein = STAT3 protein (Homo sapiens, UniProt P40763); assay: Intact protein LC-MS labelling; type: binding
Source text: 1 Overview of the virtual screening workflow and hit follow-up. (a) Overview of the covalent docking virtual screening workflow, including representation of the key residues inside the binding site and highlighting the C259 residue. Remaining molecules after each step are included in parentheses. (b) Schematic representation of the expected mass peaks and shifts from the MS results for single and multiple labeling. The values assigned to the peaks for other than the peak corresponding to the unlabeled protein represents mass shift(s) resulting from successful labeling.
RPLC-MS analysis of the intact proteins were performed on a a Triple TOF 5600+ hybrid Quadrupole-TOF LC/MS/MS system (Sciex, MA, USA) equipped with a DuoSpray IonSource coupled with a Shimadzu Prominence LC20 UFLC (Shimadzu, Japan) system consisting of quaternary pump, an autosampler and a thermostatted column compartment. Chromatographic separation was achieved on the Discovery® BIO Wide Pore C-18-5 (250 mm × 2.1mm, 5 μm, 300 Å) HPLC column. Sample was eluted in gradient elution mode using solvent A (0.1% formic acid in water) and solvent B (0.1% formic acid in ACN). The initial condition was 5% B for 7 min, followed by a linear gradient to 90% B by […], from 55 to 63 min 90% B was retained; and from 63 to 65 min back to initial condition with 5 % eluent B and retained for 10 min. Flow rate was set to 0.2 ml/min. […]

T1 sequence (P40763 127-688): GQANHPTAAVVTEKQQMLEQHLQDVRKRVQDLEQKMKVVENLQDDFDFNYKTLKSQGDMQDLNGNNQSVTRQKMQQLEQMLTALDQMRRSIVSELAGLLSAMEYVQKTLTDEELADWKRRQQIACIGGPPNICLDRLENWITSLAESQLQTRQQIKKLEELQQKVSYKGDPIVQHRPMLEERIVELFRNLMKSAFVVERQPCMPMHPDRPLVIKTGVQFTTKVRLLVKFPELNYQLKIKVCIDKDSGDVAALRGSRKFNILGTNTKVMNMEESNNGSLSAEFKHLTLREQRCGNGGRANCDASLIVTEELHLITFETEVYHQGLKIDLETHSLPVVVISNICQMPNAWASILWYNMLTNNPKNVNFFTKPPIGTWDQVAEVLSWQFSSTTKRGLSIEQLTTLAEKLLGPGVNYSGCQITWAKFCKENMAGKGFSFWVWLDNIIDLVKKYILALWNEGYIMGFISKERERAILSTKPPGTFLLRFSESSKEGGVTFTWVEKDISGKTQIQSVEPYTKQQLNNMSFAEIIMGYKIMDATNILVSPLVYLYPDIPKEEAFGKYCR
Sequence of STAT3 protein (P40763 127-688 limits assumed): as the sequence (P40763 127-688) above

IC50 [1]	Covalent labelling of STAT3 (single vs multiple) (STAT3 protein)	SMILES
141 ± 53.4 µM		CCC(=O)N1CCCC(C(=O)NCc2ccc3c(c2)OCO3)C1 (centres unmarked) [10a, N-(benzo[d][1,3]dioxol-5-ylmethyl)-1-propionylpiperidine-3-carboxamide]
86.7 ± 49.9 µM		CCC(=O)N1CCCC(O)(C(=O)NCc2ccc3c(c2)OCO3)C1 (centres unmarked) [10b, N-(benzo[d][1,3]dioxol-5-ylmethyl)-3-hydroxy-1-propionylpiperidine-3-carboxamide]
40.7 ± 16.7 µM		C=CC(=O)N1CCCC(C(=O)NCc2cc(Br)c3c(c2)OCO3)C1 (centres unmarked) [K2]
255 ± 124 µM		C=CC(=O)N1CC(C(=O)NCCN2CC3CCCCN3C2=O)C1 (centres unmarked) [K3]
44.9 ± 22.7 µM		C=CC(=O)N1CCC(C(=O)NCC(O)c2c(F)cccc2F)CC1 (centres unmarked) [K6]
94.6 µM and 94.5 µM		C=CC(=O)N1CCC(C(=O)N2CCN(C(=O)Cc3ccccc3C)CC2)CC1 [K10]

Second part, the compound before the results:

SMILES	IC50 [1]	Covalent labelling of STAT3 (single vs multiple) (STAT3 protein)
C=CC(=O)N1CCCC(C(=O)NCc2ccc3c(c2)OCO3)C1 (centres unmarked) [6a, 1-acryloyl-N-(benzo[d][1,3]dioxol-5-ylmethyl)piperidine-3-carboxamide]	50.4 ± 39.4 µM	
C=CC(=O)N1CCCC(O)(C(=O)NCc2ccc3c(c2)OCO3)C1 (centres unmarked) [6b, 1-acryloyl-N-(benzo[d][1,3]dioxol-5-ylmethyl)-3-hydroxypiperidine-3-carboxamide]	2.91 ± 0.66 µM	single labeling
C=CS(=O)(=O)N1CCCC(C(=O)NCc2ccc3c(c2)OCO3)C1 (centres unmarked) [compound 8, N-(benzo[d][1,3]dioxol-5-ylmethyl)-1-(vinylsulfonyl)piperidine-3-carboxamide]	33.4 ± 5 µM	labeled the protein at multiple residues
